Measurements as given in the supplement of paper PMC11821682.

Assays:
[1] = system: Danio rerio embryo; assay: BMC10 any morphological effect or mortality at 120 hpf; higher = less toxic
[2] = system: Danio rerio embryo; assay: LEL larval photomotor response dark phase 120 hpf
Protocol: (§1)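 ZBEscreen: dechorionated Tropical 5D zebrafish embryos were exposed from 4 hpf in 96-well plates (1% DMSO, 28 °C). All compounds were first tested at 100 µM; hits were retested at 0.005-100 µM. Morphology and mortality were scored at 120 hpf and fitted as BMC10 (3-parameter log-logistic, extra risk). The embryonic photomotor response at 24 hpf and the larval photomotor response at 120 hpf are given as lowest effect levels (K-S test, p<0.01). NA = not significant up to 100 µM; NT = not tested.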

[3] = system: HL-60; assay: Cell Health Index (toxicity pseudo-probability over dose series) (index 0-1); higher = more cytotoxic / cell stress;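 further: HL-60 cells exposed 4 h at 37 °C to ten threefold dilutions spanning 5 nM to 100 µM, multiparametric flow cytometry features scored by machine-learning classification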
[4] = system: Danio rerio embryo; assay: LEL embryonic photomotor response 24 hpf
Protocol: as §1

[5] = system: Danio rerio embryo; assay: BMC10 mortality 24-120 hpf; higher = less toxic
Protocol: as §1

| SMILES | BMC10 any morphological effect or mortality [1] | LEL larval photomotor response dark phase 120 hpf [2] | Cell Health Index [3] | LEL embryonic photomotor response 24 hpf [4] | BMC10 mortality 24-120 hpf [5] |
| --- | --- | --- | --- | --- | --- |
| CC(=O)c1cc([N+](=O)[O-])c(Sc2cccc(Cl)c2Cl)s1 | 0.246 µM | > 100 µM | 0.789 | > 100 µM | 27.7 µM |
| O=c1cc(-c2cccc3c2Sc2ccccc2S3)oc(N2CCOCC2)c1 | 5.74 µM | > 100 µM | 0.663 | 11.1 µM | 9.46 µM |
| Cl.Cl.OCCOCCN1CCN(Cc2cccc(Oc3ccccc3)c2)CC1 | 36.5 µM | 33.3 µM | 0.385 | 33.3 µM | 43.1 µM |
| COc1ccc2c(c1)CC[C@@H]1[C@@H]2CC[C@]2(C)[C@@H](NCCCCCCN3C(=O)C=CC3=O)CC[C@@H]12 | 0.134 µM | > 100 µM | 0.348 | 11.1 µM | 0.101 µM |
| C=C[C@H](OC(C)=O)c1ccc(OC(C)=O)cc1 (racemic) [(±)-1'-Acetoxychavicol acetate] | 1.32 µM | > 100 µM | 0.778 | > 100 µM | 1.96 µM |
| COC(=O)C1=C(C)N=C(c2ncc(F)cc2F)NC1c1ccc(F)cc1Cl (racemic) [(±)-BAY 41-4109] | 8.25 µM | > 100 µM | 0.592 | 11.1 µM | 12.6 µM |
| CN1CCN(C(c2ccc(Cl)cc2)c2ccc(Cl)cc2)CC1 [1-[bis(4-chlorophenyl)methyl]-4-methyl-piperazine] | 12.6 µM | > 100 µM | 0.934 | 11.1 µM | 16.1 µM |
| CC(=O)c1c(O)cc(O)c(C(C)=O)c1O [2,4-Diacetylphloroglucinol] | 1.45 µM | > 100 µM | 0.669 | 3.7 µM | 3.32 µM |
| O[C@H]1[C@@]2([H])[C@](CC[C@]2([H])[C@](O)(C)CC/C=C(C)/C)(C)[C@]3(C)CC[C@]4([H])[C@@](CC[C@H](O[C@]5([H])O[C@H](CO)[C@@H](O)[C@H](O)[C@H]5O)C4(C)C)(C)[C@@]3([H])C1 [20(S)-Ginsenoside Rh2] | > 100 µM | > 100 µM | 0.787 | 11.1 µM | 9.35 µM |
| CC1(C)[C@@H](O)CC[C@@]2(C)[C@@]1([H])[C@@H](O)C[C@]3(C)[C@]2([H])C[C@@H](O)[C@@]4([H])[C@@]3(C)CC[C@]4([H])[C@@](C)(O)CC/C=C(C)/C [20(S)-Protopanaxatriol] | 16.2 µM | > 100 µM | 0.803 | 33.3 µM | 25.7 µM |
| Cc1sc2c(c1C)C(c1ccc(Cl)cc1)=N[C@@H](CC(=O)OC(C)(C)C)c1nnc(C)n1-2 [(+)-JQ1] | 1.13 µM | > 100 µM | 0.87 | 3.7 µM | 1.15 µM |
| Cc1cc(Nc2nc(N[C@@H](C)c3ccc(F)cc3)c(C#N)cc2F)n[nH]1 [AZ-960] | 1.27 µM | > 100 µM | 0.78 | 3.7 µM | 1.95 µM |
| O=C1c2cccc(O)c2C(=O)c2c(O)cc(CO)cc21 [Aloe-emodin] | 9.08 µM | > 100 µM | 0.198 | 3.7 µM | 17.1 µM |
| C[C@H]1[C@H](OC(=O)CCC(=O)O)O[C@@H]2O[C@@]3(C)CC[C@H]4[C@H](C)CC[C@@H]1[C@@]24OO3 [Artesunate] | 7.91 µM | > 100 µM | 0.146 | > 100 µM | 9.08 µM |
| C=C(C)[C@@H]1CC[C@]2(C(=O)O)CC[C@]3(C)[C@H](CC[C@@H]4[C@@]5(C)CC[C@H](OC(=O)CC(C)(C)C(=O)O)C(C)(C)[C@@H]5CC[C@]43C)[C@@H]12 [Bevirimat] | 1.29 µM | > 100 µM | 0.321 | 11.1 µM | 3.82 µM |
| COC(=O)c1cc(OC)c2c(c1-c1c(CO)cc(OC)c3c1OCO3)OCO2 [Bicyclol] | 4.07 µM | > 100 µM | 0.207 | 0.046 µM | 10.7 µM |
| CC(C)(C)C(O)C(Oc1ccc(-c2ccccc2)cc1)n1cncn1 (stereo not given) [Bitertanol] | 16.4 µM | 11.1 µM | 0.408 | 33.3 µM | 30.3 µM |
| Oc1c(Cl)cc(Cl)cc1Sc1cc(Cl)cc(Cl)c1O [Bithionol] | 0.577 µM | > 100 µM | 0.826 | 3.7 µM | 0.795 µM |
| CC(C)C[C@H](NC(=O)[C@H](Cc1ccccc1)NC(=O)c1cnccn1)B(O)O [Bortezomib] | 13.2 µM | 0.14 µM | 0.24 | > 100 µM | 17.4 µM |
| C[C@H]1CCC/C=C/[C@@H]2C[C@H](O)C[C@H]2[C@H](O)/C=C/C(=O)O1 [Brefeldin A] | 1.09 µM | > 100 µM | 0.226 | 11.1 µM | 3.95 µM |
| Cc1c(-c2ccc(-c3ccccc3F)cc2)nc2ccc(F)cc2c1C(=O)O [Brequinar] | 0.331 µM | > 100 µM | 0.332 | 11.1 µM | 1.41 µM |
| C[C@]12CC[C@H](O)C[C@H]1CC[C@@H]1[C@@H]2CC[C@]2(C)[C@@H](c3ccc(=O)oc3)C[C@H]3O[C@]132 [Bufogenin] | 2.23 µM | > 100 µM | 0.504 | 11.1 µM | 1.41 µM |
| COc1ccc(-c2oc3cc(OC)c(OC)c(O)c3c(=O)c2OC)cc1O [Casticin] | 1.26 µM | > 100 µM | 0.355 | 3.7 µM | 1.28 µM |
| CC[C@H]1CN2CCc3cc(OC)c(OC)cc3[C@@H]2C[C@@H]1C[C@H]1NCCc2cc(O)c(OC)cc21 [Cephaeline] | 0.069 µM | 0.41 µM | 0.562 | 3.7 µM | 0.159 µM |
| COc1ccc2cc1Oc1ccc(cc1)C[C@H]1c3c(cc4c(c3Oc3cc5c(cc3OC)CCN(C)[C@@H]5C2)OCO4)CCN1C [Cepharanthine] | 10.5 µM | 0.41 µM | 0.911 | > 100 µM | 10.9 µM |
| CN1Cc2c(ccc3c2OCO3)[C@@H]2[C@H]1c1cc3c(cc1C[C@@H]2O)OCO3 [Chelidonine] | 0.064 µM | > 100 µM | 0.277 | > 100 µM | 0.079 µM |
| CN1CCN(C(c2ccccc2)c2ccc(Cl)cc2)CC1.Cl (stereo not given) [Chlorcyclizine] | 8.84 µM | > 100 µM | 0.478 | 11.1 µM | 15.9 µM |

| SMILES | BMC10 any morphological effect or mortality [1] | LEL larval photomotor response dark phase 120 hpf [2] | Cell Health Index [3] | LEL embryonic photomotor response 24 hpf [4] | BMC10 mortality 24-120 hpf [5] |
| --- | --- | --- | --- | --- | --- |
| O=c1cc(-c2ccccc2)oc2cc(O)cc(O)c12 [Chrysin] | 28.6 µM | 11.1 µM | 0.435 | 33.3 µM | 28.3 µM |
| CC(=O)O[C@H]1[C@H]2O[C@]23[C@@H]2CC[C@@H]4C[C@@H](O)CC[C@]4(C)[C@H]2CC[C@]3(C)[C@H]1c1ccc(=O)oc1 [Cinobufagin] | 27.2 µM | 33.3 µM | 0.556 | 1.23 µM | 29.9 µM |
| Cl.Clc1ccc(Cn2c(CN3CCCC3)nc3ccccc32)cc1 [Clemizole] | 4.04 µM | > 100 µM | 0.453 | 3.7 µM | 10.1 µM |
| C/C=C(/C)C(=O)OC(C)(C)[C@@H]1Cc2c(ccc3ccc(=O)oc23)O1 [Columbianadin] | 4.14 µM | > 100 µM | 0.399 | 3.7 µM | 4.89 µM |
| COc1cc(/C=C\C(=O)CC(=O)/C=C\c2ccc(O)c(OC)c2)ccc1O [Curcumin] | 30.8 µM | > 100 µM | 0.401 | > 100 µM | 40 µM |
| c1ccc(CNc2nc(NCc3ccccc3)c3ccccc3n2)cc1 [DBeQ] | 1.15 µM | > 100 µM | 0.929 | 1.23 µM | 1.31 µM |
| CCC[C@H](NC(=O)/C(C#N)=C/c1cccc(Br)n1)c1ccccc1 [Degrasyn] | 0.411 µM | > 100 µM | 0.909 | 1.23 µM | 1.92 µM |
| O[C@H]1CC[C@H](Nc2nc(-c3ccccc3)nc3[nH]ccc23)CC1 [Derenofylline] | 22.7 µM | > 100 µM | 0.201 | 100 µM | 36.8 µM |
| C[C@H]1[C@@H](O)O[C@@H]2O[C@@]3(C)CC[C@H]4[C@H](C)CC[C@@H]1[C@@]24OO3 [Dihydroartemisinin] | 2.99 µM | 1.23 µM | 0.215 | > 100 µM | 2.11 µM |
| COc1cccc2c1C(=O)c1c(O)c3c(c(O)c1C2=O)C[C@@](O)(C(=O)CO)C[C@@H]3O[C@H]1C[C@H](N)[C@H](O)[C@H](C)O1.Cl [Doxorubicin] | 3.18 µM | > 100 µM | 0.852 | 11.1 µM | 7.71 µM |
| O=C(N/N=C/c1ccc(O)c(O)c1)c1cc2ccccc2cc1O [Dynasore] | 10.2 µM | > 100 µM | 0.48 | 33.3 µM | 7.92 µM |
| CC(C)(C)c1cc(C(=O)/C(C#N)=N/Nc2cccc(Cl)c2)no1 [ESI-09] | 0.422 µM | > 100 µM | 0.698 | 11.1 µM | 0.13 µM |
| O=C1Nc2ccc(Cl)cc2[C@@](C#CC2CC2)(C(F)(F)F)O1 [Efavirenz] | 1.3 µM | > 100 µM | 0.874 | 3.7 µM | 12 µM |
| COc1ccc2cc1Oc1ccc(cc1)C[C@H]1c3cc(c(OC)cc3CCN1C)Oc1c(O)c(OC)cc3c1[C@H](C2)N(C)CC3 [Fangchinoline] | 6.15 µM | > 100 µM | 0.884 | > 100 µM | 46.2 µM |
| CN1CC[C@H](c2c(O)cc(O)c3c(=O)cc(-c4ccccc4Cl)oc23)[C@H](O)C1.Cl [Flavopiridol] | 1.2 µM | > 100 µM | 0.49 | 3.7 µM | 1.71 µM |
| NC(=O)c1cccc(-c2cc(Nc3ccc(OC(F)(F)F)cc3)ncn2)c1 [GNF-2] | 3.7 µM | > 100 µM | 0.869 | 11.1 µM | 4.78 µM |
| O=C(NCCO)c1cccc(-c2cc(Nc3ccc(OC(F)(F)F)cc3)ncn2)c1 [GNF-5] | 28.6 µM | 33.3 µM | 0.81 | > 100 µM | 36.2 µM |
| O=c1c(O)c(-c2ccccc2)oc2cc(O)cc(O)c12 [Galangin] | 12.3 µM | > 100 µM | 0.411 | 100 µM | 32.8 µM |
| CC1(C)C=Cc2c(ccc3c2OC[C@@H](c2ccc(O)cc2O)C3)O1 [Glabridin] | 3.57 µM | > 100 µM | 0.58 | 11.1 µM | 9.73 µM |
| Fc1cc(F)c2c(c1)C1C=CCC1C(c1cccnc1)N2 (stereo not given) [Golgicide A] | 1.37 µM | > 100 µM | 0.317 | 3.7 µM | 2.32 µM |
| CC(C)(C)Oc1cccc2nc(N)nc(N)c12 [HZ-1157] | > 100 µM | > 100 µM | 0.463 | 33.3 µM | 16.1 µM |
| COC(=O)C[C@](O)(CCC(C)(C)O)C(=O)O[C@@H]1C(OC)=C[C@]23CCCN2CCc2cc4c(cc2[C@H]13)OCO4 [Harringtonine] | 10.8 µM | > 100 µM | 0.376 | 33.3 µM | 26.6 µM |
| CC(C)c1cccc(=O)c(O)c1 [Hinokitiol] | 3.83 µM | > 100 µM | 0.335 | 33.3 µM | 10.1 µM |
| C=CCc1ccc(O)c(-c2ccc(O)c(CC=C)c2)c1 [Honokiol] | 5.7 µM | > 100 µM | 0.542 | 3.7 µM | 9.2 µM |
| O=C1C=CC2=C(C(OC/C=C(C)/C)=C(OC=C3)C3=C2)O1 [Imperatorin] | 2.05 µM | > 100 µM | 0.307 | 3.7 µM | 10.8 µM |
| NC(=O)c1ccc(I)c([N+](=O)[O-])c1 [Iniparib] | 10.2 µM | > 100 µM | 0.283 | 33.3 µM | 33.9 µM |
